Blank lines part the entries; values can stand above or below the compound they belong to.
What was measured:
[1] = system: Chinese hamster lung (CHL) cell; experiment: Chromosomal aberration test using Chinese hamster lung (CHL) cell; assay type: cell-based; conditions: for Chromosomal aberration test result: dose not given
From the text: For measuring the induction of chromosomal aberration, the chromosomal aberration test has been carried out using Chinese hamster lung (CHL) cell. 2 kinds of methods have been adopted, such as, metabolic activation method (+S9) using metabolic activation system and direct method (−S9) without metabolic activation system.
For determining the test material reacting concentration, the cell growth inhibition test has been carried out. The test material has been dissolved and diluted in dimethyl sulfoxide (DMSO). Regardless of metabolic activation system, 12 concentration steps (2.43, 4.87, 9.75, 19.5, 39.1, 78.1, 156.3, 312.5, 625, 1250, 2500, 5000 μg/ml) of test material have been prepared. The cells have been cultured for 24 hours as the same way of main test. […] The medium has been further cultured for 18 hours.
Based upon the data of cell growth inhibition test, maximum concentration has been determined when the cell growth has been inhibited up to 50% as the relative cell numbers.
Regardless of metabolic activation system, the test materials have been prepared after 24 hours from the initiation of test. Then, the number of chromosomal aberration has been counted.

[2] = system: HCl-Ethanol inducing gastritis model; experiment: HCl-Ethanol inducing gastritis model; assay type: in vivo, white rats
Protocol: After white rats have been fasted for 24 hours, CD-101, CD-102 and CD-103 compound have been orally administered according to method disclosed in Mizui et al., Jap. J. Pharmacol. 33: pp. 939-945 (1983). After 1 hour, 1.5 ml of 60% ethanol including 150 mM HCl has been orally administered to each animal. 1 hour later, animals have been sacrificed by cervical dislocation. After removing the stomach, the stomach has been fixed by injection of 13 ml of 2% formalin for 1 hour. After fixed stomach has been spread out, the lesion area has been measured using the photo by digital camera. Computer program Image J 1.38 (NIH, Bethesda, Md.) has been applied for measuring gastric lesion area (mm^2) The lesion inhibition rate has been calculated according to following equation. Further, 50% effective dose (ED50) has been also calculated using regression analysis.
Lesion inhibition rate(%)={gastric lesion area of control group(mm^2)−gastric lesion area of drug administration group(mm^2)}/gastric lesion area of control group(mm^2)×100

[3] = system: indomethacin inducing stomach ulcer model; experiment: Indomethacin inducing stomach ulcer model; assay type: in vivo, white rats; conditions: oral
Protocol: After white rats have been fasted for 24 hours, CD-101, CD-102 and CD-103 compound have been orally administered according to method disclosed in Yamasaki et al., Jap. J. Pharmacol. 49: pp. 441-448 (1989). After 1 hour, indomethacin (50 mg/kg) has been orally administered to each animal After fasting for 5 hours, animals have been sacrificed by cervical dislocation. After removing the stomach, the stomach has been fixed by injection of 13 ml of 2% formalin for 1 hour. After fixed stomach has been spread out, the lesion area has been measured using the photo by digital camera. Computer program Image J 1.38 (NIH, Bethesda, Md.) has been applied for measuring gastric lesion area (mm^2) The lesion inhibition rate and 50% effective dose (ED50) have been calculated as the same manner of HCl-EtOH model.

[4] = +S9 (metabolic activation method)

Chromosomal aberration test results ([1]; +S9, dose 2.5 μg/kg): negative
Chromosomal aberration test results ([1]; +S9, dose 5 μg/kg): negative
Induction of chromosomal aberration ([1]; CHL cell): do not induce the chromosomal aberration
Chromosomal aberration test results ([1]; −S9, dose 0.625 μg/kg): negative
Chromosomal aberration test results ([1]; −S9, dose 1.25 μg/kg): negative
Structure (SMILES): C=C1C(=O)O[C@@H]2[C@@H]3[C@@H](CC[C@@]3(C)O)[C@](C)(OC)CC[C@@H]12 [CD-103]

Chromosomal aberration test result [1, 4]: positive positive
Chromosomal aberration test result ([1]; −S9 (direct method)): positive positive
Structure (SMILES): C=C1C(=O)O[C@@H]2/C=C(\C)CC/C=C(\C)C[C@@H](OC(C)=O)C12 (stereo partly shown) [reference compound]

Chromosomal aberration test result [1, 4]: positive positive
Chromosomal aberration test result ([1]; −S9 (direct method)): positive positive
Structure (SMILES): C=C1C(=O)O[C@@H]2/C=C(\C)CCC(O)C(C)(O)C[C@@H](OC(C)=O)C12 (stereo partly shown) [reference compound]

Chromosomal aberration test result [1, 4]: positive positive
Chromosomal aberration test result ([1]; −S9 (direct method)): positive positive
Structure (SMILES): CC(=O)O[C@@H]1/C=C(\C)CCC/C(C)=C/[C@H]2OC(=O)[C@H](CN(C)C)C12 (stereo partly shown) [reference compound]

Continued, compound first:

Structure (SMILES): C=C1C(=O)O[C@@H]2[C@@H](O)[C@]3(C)CC[C@H]3[C@](C)(OC)CC[C@@H]12 [CD-101]
Chromosomal aberration test results ([1]; +S9, dose 20 μg/kg): negative
Chromosomal aberration test results ([1]; +S9, dose 40 μg/kg): negative
Induction of chromosomal aberration ([1]; CHL cell): do not induce the chromosomal aberration
Chromosomal aberration test results ([1]; −S9, dose 5 μg/kg): negative

Structure (SMILES): C=C1C(=O)O[C@@H]2[C@@H]3[C@@H](CC[C@@]3(C)O)C(=C)CC[C@@H]12 [CD-102]
inhibition at 1 mg/kg ([2]; Rattus norvegicus, oral, dose 1 mg/kg, read-out: Lesion inhibition rate): 43%
inhibition at 3 mg/kg ([2]; Rattus norvegicus, oral, dose 3 mg/kg, read-out: Lesion inhibition rate): 70.4%
inhibition at 10 mg/kg ([2]; Rattus norvegicus, oral, dose 10 mg/kg, read-out: Lesion inhibition rate): 94.9%
50% effective dose (ED50) ([2]; oral, regression analysis): 1.31 mg/kg
inhibition at 1 mg/kg ([3]; Rattus norvegicus, dose 1 mg/kg, read-out: Lesion inhibition rate): 41.6%
inhibition at 3 mg/kg ([3]; Rattus norvegicus, dose 3 mg/kg, read-out: Lesion inhibition rate): 56.1%
inhibition at 10 mg/kg ([3]; Rattus norvegicus, dose 10 mg/kg, read-out: Lesion inhibition rate): 77.2%
50% effective dose (ED50) ([3]; regression analysis): 1.82 mg/kg
Chromosomal aberration test results ([1]; +S9, dose 5 μg/kg): negative
Chromosomal aberration test results ([1]; +S9, dose 20 μg/kg): negative
Cytotoxicity ([1]; CHL cell): neither cytotoxicity
Induction of chromosomal aberration ([1]; CHL cell): do not induce the chromosomal aberration
Chromosomal aberration test results ([1]; −S9, dose 1.25 μg/kg): negative
Chromosomal aberration test results ([1]; −S9, dose 5 μg/kg): negative

Structure (SMILES): CO[C@@]12[C@H](COC(N)=O)C3=C(C(=O)C(C)=C(N)C3=O)N1C[C@@H]1N[C@@H]12 [Mitomycin C, reference compound]
Chromosomal aberration test results ([1]; −S9, dose 0.5 μg/kg): positive

Structure (SMILES): CC1=C2C3OC(=O)[C@@H](C)[C@@H]3CC[C@@]2(C)C=CC1=O (stereo partly shown) [reference compound]
Lesion inhibition rate ([2]; Table 2, ineffective compounds, dose not given): no effect

— US20150336919A1, “Sesquiterpene lactone-based pharmaceutical composition for treating gastrointestinal diseases” (CHO DANG PHARM. CO., LTD., priority 2012, published 2015)
